Experimental data: patent US4925861A, “Carboxystyrene derivatives and drugs containing them as effective ingredients” (Mitsubishi Kasei Corporation, priority 1987, dated 1990)

Tested on: Phospholipase A2 from Naja mocambique
Experiment: in vitro phospholipase inhibiting activity (DPybPC fluorescence)
Type: biochemical
Details: compound 10^-5 M, substrate DPybPC 2 μM, pH 8.0, 25° C.

SMILES	Phospholipase A2 Inhibition (%)
O=C(Nc1ccccc1C(=O)O)c1cccc(C=Cc2nc3ccccc3s2)c1 [Compound 13]	73
CCC(CC)(CNC(=O)c1cccc(C=Cc2nc3ccccc3s2)c1)C(=O)O [Compound 20]	47
